In ChEMBL document CHEMBL1135113 (Bioorg Med Chem Lett, 2002):
Calls of active or inactive are those of the source. The rule behind the calls is not given here.

Tests used:
Integrin alpha-V/beta-3 = Integrin alpha-V/beta-3 (Homo sapiens, UniProt P05106+P06756); assay: Selectivity against alphaV-beta3 integrin; assay type: protein-complex assay
[1] = target: T1, Integrin alpha-IIb/beta-3 (Homo sapiens, UniProt P05106+P08514); assay: Selectivity against alpha IIb beta-3 integrin; Not active; assay type: protein-complex assay
[2] = target: T2, Integrin alpha-4/beta-1 (Homo sapiens) (UniProt P05556+P13612); assay: Cell adhesion activity against alpha4-beta1 integrin at 10e-5 M; assay type: protein-complex assay
[3] = target: Integrin alpha-5/beta-1 (Homo sapiens) (UniProt P05556+P08648); assay: Cell adhesion activity against alpha5-beta1 integrin; assay type: protein-complex assay
Homo sapiens = species on record: Homo sapiens; assay: Efficacy of compound in cell migration of primary human Smooth Muscle Cells (SMC) was determined; assay type: functional
[4] = target: T2, Integrin alpha-4/beta-1 (Homo sapiens); assay: Cell adhesion activity against alpha4-beta1 integrin at 10 e-5M (not active); assay type: protein-complex assay
[5] = target: T1, Integrin alpha-IIb/beta-3; assay: Selectivity against Integrin alpha-IIb beta-3 receptor versus fibrinogen; Not active; assay type: protein-complex assay

Sequence of Integrin alpha-V/beta-3 (P05106 27-788 limits assumed): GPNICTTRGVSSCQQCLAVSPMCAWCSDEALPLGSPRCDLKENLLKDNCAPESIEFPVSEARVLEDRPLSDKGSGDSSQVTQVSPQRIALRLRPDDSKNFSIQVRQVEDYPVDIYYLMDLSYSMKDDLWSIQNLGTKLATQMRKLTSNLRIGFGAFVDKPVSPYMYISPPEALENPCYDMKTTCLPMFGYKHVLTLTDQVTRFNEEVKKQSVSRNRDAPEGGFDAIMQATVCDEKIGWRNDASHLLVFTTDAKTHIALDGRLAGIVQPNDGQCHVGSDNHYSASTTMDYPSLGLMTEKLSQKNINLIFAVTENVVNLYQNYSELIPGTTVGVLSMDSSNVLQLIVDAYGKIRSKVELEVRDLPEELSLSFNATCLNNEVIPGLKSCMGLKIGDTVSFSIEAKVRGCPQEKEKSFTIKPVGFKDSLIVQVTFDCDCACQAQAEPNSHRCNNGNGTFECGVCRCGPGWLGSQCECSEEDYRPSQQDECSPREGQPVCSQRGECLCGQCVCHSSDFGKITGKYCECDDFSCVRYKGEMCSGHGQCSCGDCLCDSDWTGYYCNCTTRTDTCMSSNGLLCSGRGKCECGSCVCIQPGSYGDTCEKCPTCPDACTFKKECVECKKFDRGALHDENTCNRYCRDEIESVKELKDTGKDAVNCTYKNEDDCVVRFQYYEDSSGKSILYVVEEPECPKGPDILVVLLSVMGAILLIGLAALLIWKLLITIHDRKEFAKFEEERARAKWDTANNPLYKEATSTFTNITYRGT
Sequence of Integrin alpha-V/beta-3 (P06756 31-889 limits assumed): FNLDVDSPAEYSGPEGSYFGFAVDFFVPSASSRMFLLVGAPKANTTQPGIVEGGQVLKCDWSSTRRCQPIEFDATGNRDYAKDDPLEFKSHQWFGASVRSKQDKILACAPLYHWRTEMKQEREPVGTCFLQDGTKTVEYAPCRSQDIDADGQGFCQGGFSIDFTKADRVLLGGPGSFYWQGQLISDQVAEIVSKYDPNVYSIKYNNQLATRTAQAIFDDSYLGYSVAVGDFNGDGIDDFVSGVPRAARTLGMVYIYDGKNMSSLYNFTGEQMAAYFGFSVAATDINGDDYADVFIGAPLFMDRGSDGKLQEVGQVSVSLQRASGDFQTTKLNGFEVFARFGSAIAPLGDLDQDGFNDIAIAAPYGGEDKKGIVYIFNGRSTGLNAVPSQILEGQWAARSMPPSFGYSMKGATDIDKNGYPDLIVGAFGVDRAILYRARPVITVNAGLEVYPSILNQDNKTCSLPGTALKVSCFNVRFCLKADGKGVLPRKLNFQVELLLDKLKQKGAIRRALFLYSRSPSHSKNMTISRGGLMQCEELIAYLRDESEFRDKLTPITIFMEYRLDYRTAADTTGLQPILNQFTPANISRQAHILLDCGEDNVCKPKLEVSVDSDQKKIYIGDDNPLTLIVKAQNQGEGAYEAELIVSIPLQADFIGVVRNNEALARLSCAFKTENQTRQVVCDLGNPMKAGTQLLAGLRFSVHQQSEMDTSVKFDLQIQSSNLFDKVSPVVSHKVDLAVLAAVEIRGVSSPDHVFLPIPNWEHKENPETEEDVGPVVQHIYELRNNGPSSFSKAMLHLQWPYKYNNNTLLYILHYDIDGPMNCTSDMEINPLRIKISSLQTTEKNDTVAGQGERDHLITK
Sequence of Integrin alpha-V/beta-3 (P06756 891-1048 limits assumed): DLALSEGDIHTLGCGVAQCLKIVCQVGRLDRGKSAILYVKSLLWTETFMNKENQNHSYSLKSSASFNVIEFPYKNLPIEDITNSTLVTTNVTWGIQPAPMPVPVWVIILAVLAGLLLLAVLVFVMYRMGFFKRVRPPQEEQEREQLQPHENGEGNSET
T1 sequence (P05106 27-788 limits assumed): as the sequence (P05106 27-788 limits assumed) above
T1 sequence (P08514 32-887 limits assumed): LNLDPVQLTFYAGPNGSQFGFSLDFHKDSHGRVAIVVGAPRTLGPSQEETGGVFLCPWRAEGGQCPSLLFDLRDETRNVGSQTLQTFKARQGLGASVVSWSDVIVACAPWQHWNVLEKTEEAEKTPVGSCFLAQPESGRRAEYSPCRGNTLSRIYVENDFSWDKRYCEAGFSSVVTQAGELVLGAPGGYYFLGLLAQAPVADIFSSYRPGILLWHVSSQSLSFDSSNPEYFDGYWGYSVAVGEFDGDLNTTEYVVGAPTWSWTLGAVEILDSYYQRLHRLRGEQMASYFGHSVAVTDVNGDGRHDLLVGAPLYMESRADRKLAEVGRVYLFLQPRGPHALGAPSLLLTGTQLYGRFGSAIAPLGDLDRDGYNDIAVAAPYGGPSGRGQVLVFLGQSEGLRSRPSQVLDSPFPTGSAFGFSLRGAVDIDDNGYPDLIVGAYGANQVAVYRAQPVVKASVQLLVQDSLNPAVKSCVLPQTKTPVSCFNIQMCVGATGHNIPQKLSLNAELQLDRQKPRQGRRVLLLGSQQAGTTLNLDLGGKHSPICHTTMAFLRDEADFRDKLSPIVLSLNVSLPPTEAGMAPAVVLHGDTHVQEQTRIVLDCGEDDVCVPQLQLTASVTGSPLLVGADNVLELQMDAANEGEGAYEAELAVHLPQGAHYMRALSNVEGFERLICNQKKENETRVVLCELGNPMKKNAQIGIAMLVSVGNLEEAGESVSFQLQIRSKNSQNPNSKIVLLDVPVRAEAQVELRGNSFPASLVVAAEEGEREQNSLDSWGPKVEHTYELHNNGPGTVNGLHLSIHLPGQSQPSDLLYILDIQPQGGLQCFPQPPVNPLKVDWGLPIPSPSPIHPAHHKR
T1 sequence (P08514 891-1039 limits assumed): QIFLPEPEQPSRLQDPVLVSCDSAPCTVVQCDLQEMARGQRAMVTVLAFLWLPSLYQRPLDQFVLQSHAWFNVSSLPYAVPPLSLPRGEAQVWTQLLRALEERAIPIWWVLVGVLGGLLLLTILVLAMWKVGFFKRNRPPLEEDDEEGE

Structure (SMILES)	IC50 (Integrin alpha-V/beta-3)	IC50 [1]	inhibition [2]	inhibition [3]	IC50 (Homo sapiens)	inhibition [4]	IC50 [5]
O=C(CNC(=O)c1ccc(NC(=O)NCc2ccccc2)o1)NC[C@H](NC(=O)OCc1ccccc1)C(=O)O	0.4 nM	Not Active	2%	inactive	1200 nM		
O=C(CNC(=O)c1cnc(NC(=O)NCc2ccccc2)o1)NC[C@H](NC(=O)OCc1ccccc1)C(=O)O	1.8 nM			inactive	500 nM	inactive	Not Active
